# Measured values: patent US20230263798A1, “COMPOSITIONS AND METHODS FOR TREATING THERAPY RESISTANT CANCER” (The General Hospital Corporation, priority 2020, published 2023)
# “Also recorded” adds a separate entry of the source.
# How the values were obtained:
# Assay type in all cases: cell-based
# METTL3 [1] = assay: Western blot analysis of METTL3 in MCF7 cells; conditions: for METTL3 level in doxorubicin treated cells co-treated with agent: doxorubicin treated cells plus agent vs buffer treated
# From the text: The Western blot includes samples with control shRNA or shMETTL3. […] Tubulin and Histone serve as Western blot loading controls. Data are average of 3 replicates +/-SEM. See also FIGS. 2A-2G.
# (§1) Data are average of 3 replicates +/-SEM. Tubulin serves as the loading control.
# (§2) Tubulin and Histone serve as Western blot loading controls. Data are average of 3 replicates +/-SEM. See also FIGS. 4A-4H.
# (§3) Actin and Tubulin are loading controls for Western blots. Data are average of 3 replicates +/-SEM.
# (§4) FIGS. 8C and 8D show Western blot analysis of PARP1, phospho-elF2α, METTL3 with doxorubicin or Sal003 treatment. […] 500 nM Doxorubicin treated MCF7 cells were co-treated with 6uM of Enzastaurin or DMSO buffer. […] Data are average of 3 replicates +/-SEM.
# To determine the mechanisms of specific mRNA expression in chemosurviving cancer cells, we examined RNA binding regulators in chemosurviving MCF7 breast cancer cells, isolated after doxorubicin chemotherapy treatment.
# METTL14 = assay: Western blot analysis of METTL14 in MCF7 cells; conditions: for METTL14 level in doxorubicin treated cells co-treated with agent: doxorubicin treated cells plus agent (FIGS. 3D and 3E)
# From the text: as §2, §3
# (§5) Western blot is shown of other RNA binding proteins that increase in mass spectrometry data. […] FIGS. 6J and 6K show Hexim, PPM1G and HuR increase in chemotreated patient samples and on doxorubicin treatment.
# (§6) If METTL3 is increased by Sal003, then m6A on RNA should increase in such conditions.
# [2] = tested on: CD14+ monocytes, CD8+ T cells, and NK (NK92) cells; assay: Co-culture of treated cancer cells with immune cells; conditions: untreated or doxorubicin or gemcitabine treated cells plus agent
# From the text: APOBEC3B would lead to neoepitopes that could trigger the immune system. However, this is not readily seen as inhibitors of immune cells such as TGF-β that inhibits NK cells are increased in doxorubicin treated breast cancer cells. […] M6A also downregulates antiviral innate immune response while promoting ADAR1 that suppresses antiviral immunity. Therefore, inhibition of METTL3 would activate them.
# ATF4 = assay: Western analysis of ATF4 (ISR response gene); conditions: for ATF4 level in doxorubicin treated cells co-treated with agent: doxorubicin treated cells plus agent vs buffer treated
# From the text: as §6
# MCF7 cells = assay: Doxorubicin chemosurvival of MCF7 cells; conditions: for doxorubicin chemosurvival with co-treatment: 500 nM Doxorubicin treated MCF7 cells co-treated with agent (5 uM Trazodone, 5 uM ISRIB, 6uM Enzastaurin) vs DMSO buffer
# Description: This was tested in METTL3 overexpression cells compared to CD-M3 cells compared to control Actin mRNA by qPCR. […] 500 nM Doxorubicin treated MCF7 cells were co-treated with (i) 5 uM of Trazodone, (ii) 5 uM of ISRIB, or DMSO buffer. […] Data are average of 3 replicates +/-SEM. Actin and Tubulin are loading controls for Western blots. See also FIG. 8A-8l.
# as §4
# METTL3 [3] = assay: Western blot of METTL3 in BT549 cells; conditions: over time of treatment
# phospho-elF2α [4] = assay: Western blot of elF2α phosphorylation in BT549 cells; conditions: over time of treatment
# Description: as §1
# To determine the mechanisms of specific mRNA expression in chemosurviving cancer cells, we examined RNA binding regulators in chemosurviving MCF7 breast cancer cells, isolated after doxorubicin chemotherapy treatment. […] The increase observed is transient and is not observed at 48 h of treatment (FIG. 2A).
# phospho-elF2α [5] = assay: Western blot of elF2α phosphorylation in THP1 cells; conditions: 1 µM Cytarabine over time
# METTL3 [6] = assay: Western blot of METTL3 in THP1 cells; conditions: 1 µM Cytarabine over time
# phospho-elF2α [7] = assay: Western blot of elF2α phosphorylation in MCF7 cells; conditions: for elF2α phosphorylation in doxorubicin treated cells with agent: addition to doxorubicin treated cells (FIG. 8F); for elF2α phosphorylation: MCF7 cells, agent alone, Western blot
# Description: as §4
# Hexim1 = assay: Western blot of Hexim1; conditions: treated cells
# From the text: as §5
# Other RNA binding proteins such as HEXIM1 and PPM1G that increase in doxorubicin surviving cells also associate with METTL3 mRNA and with HuR. The indirect associated protein, Hexim1 is a transcription regulator but also associates with other complexes and RNAs and promotes mRNA stability under nucleotide stress. […] The phosphatase PPM1G is known to associate with Hexim1 and is activated by DNA damage/ATM signaling upon chemotherapy treatment, and upon PI3K/Akt inhibition, consistent with these conditions where METTL3 increases. On Akt inhibition, PPM1G dephosphorylates 4EBP; this inhibits canonical translation, consistent with specific mRNA translation elicited in these conditions.
# Therefore, we tested whether Hexim1 was required for METTL3 levels.
# m6A on RNA = assay: m6A on ribosomal RNA depleted RNA (dot blot, 2D-TLC)
# Description: The Western blot includes samples with control shRNA or shMETTL3. […] Tubulin and Histone serve as Western blot loading controls. Data are average of 3 replicates +/-SEM. See also FIGS. 2A-2G. […]
# To test whether the increased m6A modification enzymes lead to increased m6A modification on RNA, ribosomal RNA depleted RNA from doxorubicin treated cells compared to untreated cells by dot blot analyses was tested. […] Consistent with decreased METTL3 upon knockdown, the dot blot signal is depleted when METTL3 is knocked down (FIG. 1B). Second, RNA from doxorubicin treated cells for m6A by two-dimensional-thin layer chromatography separation (2D-TLC) was performed (H. Grosjean, G. Keith, L. Droogmans, Detection and quantification of modified nucleotides in RNA using thin-layer chromatography. Methods in molecular biology (Clifton, N.J.) 265, 357-391 (2004)).
# METTL3 mRNA = METTL3 mRNA level and translation (qPCR, polysome fractionation, nascent amino acid labeling); conditions: treated vs buffer treated cells, polysome fractionation and qPCR
# Description: as §2, §3
# To verify that the increase in METTL3 was at the translation level, polysome analysis was conducted first. […] We next verified increased polysome association of METTL3 mRNA with Y10B antibody immunoprecipitation in doxorubicin treated and in Sal003 cells compared to buffer treated cells (FIGS. 3I and 4F).
# PARP1 = assay: Western blot analysis of PARP1; conditions: treated cells
# Description: as §4
# Consistently, doxorubicin treated cells are sensitive to PARP inhibitors, such as Talazoparib (BMN-673, FIG. 8B).
# [8] = MCF7 cells, agent alone vs untreated/buffer, Western blot
# [9] = ribosomal RNA depleted RNA from treated vs untreated MCF7 cells, dot blot or 2D-TLC
compound,measurement,setting,value
O=C(COc1ccc(Cl)cc1)NC1CCC(NC(=O)COc2ccc(Cl)cc2)CC1 (centres unmarked) [ISRIB],METTL3 level in doxorubicin treated cells co-treated with agent,METTL3 [1]; Western blot,do not show increase
same,METTL14 level in doxorubicin treated cells co-treated with agent,METTL14,prevent
same,survival of treated cancer cells co-cultured with immune cells,[2],loss of survival
same,ATF4 level in doxorubicin treated cells co-treated with agent,ATF4,do not show increase
same,doxorubicin chemosurvival with co-treatment,MCF7 cells,significant decrease
CC(=O)O[C@H]1C(=O)[C@@]2(C)[C@H]([C@H](OC(=O)c3ccccc3)[C@]3(O)C[C@H](OC(=O)[C@H](O)[C@@H](NC(=O)c4ccccc4)c4ccccc4)C(C)=C1C3(C)C)[C@]1(OC(C)=O)CO[C@@H]1C[C@@H]2O [Taxol],METTL3 level,METTL3 [3],increase over time
same,elF2α phosphorylation,phospho-elF2α [4],increase over time
Nc1ccn([C@@H]2O[C@H](CO)[C@@H](O)[C@@H]2O)c(=O)n1 [Cytarabine],elF2α phosphorylation,phospho-elF2α [5],transient increase
same,METTL3 level,METTL3 [6],transient increase
O=c1n(CCCN2CCN(c3cccc(Cl)c3)CC2)nc2ccccn12 [trazodone],METTL3 level in doxorubicin treated cells co-treated with agent,METTL3 [1]; Western blot,do not show increase
same,METTL14 level in doxorubicin treated cells co-treated with agent,METTL14,prevent
same,survival of treated cancer cells co-cultured with immune cells,[2],loss of survival
same,ATF4 level in doxorubicin treated cells co-treated with agent,ATF4,do not show increase
same,doxorubicin chemosurvival with co-treatment,MCF7 cells,significant decrease
same,doxorubicin chemosurvival of shMETTL3 cells with agent,"MCF7 cells; METTL3 depleted (shMETTL3) cells, doxorubicin plus Trazodone vs buffer (FIG. 8A)",Synergistic decrease in chemosurvival was not observed
CN(C)C(=N)N=C(N)N [metformin],METTL3 level in doxorubicin treated cells co-treated with agent,METTL3 [1]; Western blot,decreased induction
same,survival of treated cancer cells co-cultured with immune cells,[2],loss of survival
same,elF2α phosphorylation in doxorubicin treated cells with agent,phospho-elF2α [7],reduction
same,doxorubicin chemosurvival with co-treatment,MCF7 cells,decreased chemosurvival
CC(=O)NCCCCCCNC(C)=O [HMBA],METTL3 level,METTL3 [1]; [8],increased
same,METTL14 level,METTL14; [8],increases
same,elF2α phosphorylation,phospho-elF2α [7],elF2α phosphorylation
same,Hexim1 level,Hexim1,increased
C/C=C(/C)C(=O)O[C@H]1C(C)=C2[C@H]([C@@H]1OC(=O)CCCCCCC)[C@@](C)(OC(C)=O)C[C@H](OC(=O)CCC)[C@@]1(O)[C@H]2OC(=O)[C@@]1(C)O [thapsigargin],METTL3 level,METTL3 [1]; [8],increase
same,METTL14 level,METTL14; [8],increase
same,elF2α phosphorylation,phospho-elF2α [7],induces
poly I:C,METTL3 level,METTL3 [1]; [8],increase
same,METTL14 level,METTL14; [8],increase
same,elF2α phosphorylation,phospho-elF2α [7],induces
same,m6A on RNA,m6A on RNA; [9],increased
same,Hexim1 level,Hexim1,increases
Nc1ccn([C@@H]2O[C@H](CO)[C@@H](O)C2(F)F)c(=O)n1 [Gemcitabine],METTL3 level,METTL3 [1]; [8],increase over time
same,METTL3 level,METTL3 [3],increase over time
same,elF2α phosphorylation,phospho-elF2α [7],increase over time
same,elF2α phosphorylation,phospho-elF2α [4],increase over time
Cn1cc(C2=C(c3cn(C4CCN(Cc5ccccn5)CC4)c4ccccc34)C(=O)NC2=O)c2ccccc21 [Enzastaurin],METTL3 level in doxorubicin treated cells co-treated with agent,METTL3 [1]; Western blot,reduced
same,doxorubicin chemosurvival with co-treatment,MCF7 cells,reduced
Cn1ncnc1[C@H]1c2n[nH]c(=O)c3cc(F)cc(c23)N[C@@H]1c1ccc(F)cc1 [Talazoparib],doxorubicin chemosurvival with co-treatment,MCF7 cells,sensitive
O=[N+]([O-])c1ccc(Nc2nc(N3CCOCC3)nc(N3CCOCC3)n2)cc1 [MHY1485],METTL3 level,METTL3 [1]; [8],decreased
CCC(=O)N1CCN(c2ccc(-n3c(=O)ccc4cnc5ccc(-c6cnc7ccccc7c6)cc5c43)cc2C(F)(F)F)CC1 [Torin1],METTL3 level,METTL3 [1]; MCF7 3D tumor spheres,increase
same,METTL3 level,METTL3 [1]; [8],increased
same,METTL14 level,METTL14; MCF7 3D tumor spheres,increase
same,elF2α phosphorylation,phospho-elF2α [7],elF2α phosphorylation
same,m6A on RNA,"m6A on RNA; MCF7 3D tumor spheres, dot blot",increased
COc1ccc(COc2cc3oc(=O)c4cc(C(C)O)ccc4c3cc2OC)cc1 (centres unmarked) [Palomid 529],METTL3 level,METTL3 [1]; [8],Increase
C[S+]([O-])c1ccc(-c2nc(-c3ccncc3)c(-c3ccc(F)cc3)[nH]2)cc1 (centres unmarked) [SB203580],METTL3 level in doxorubicin treated cells co-treated with agent,METTL3 [1]; Western blot,reduces METTL3 increase
[H]/N=C(/N)N/C(=N/[H])NCCc1ccccc1 [phenformin],METTL3 level in doxorubicin treated cells co-treated with agent,METTL3 [1]; Western blot,decreased induction
same,survival of treated cancer cells co-cultured with immune cells,[2],loss of survival
same,elF2α phosphorylation in doxorubicin treated cells with agent,phospho-elF2α [7],reduction
same,doxorubicin chemosurvival with co-treatment,MCF7 cells,decreased chemosurvival; also recorded: reduced doxorubicin survival
O=C(/C=C/c1ccccc1)NC(NC(=S)Nc1ccc(Cl)cc1)C(Cl)(Cl)Cl (centres unmarked) [Sal003],METTL3 mRNA on polysomes compared to monosomes,METTL3 mRNA,increased
same,METTL3 level,METTL3 [1]; [8],increased
same,METTL14 level,METTL14; [8],increased
same,non-canonical translation of ATF4,"ATF4; MCF7 cells, agent alone",induced
same,PARP1 level,PARP1,increases
same,elF2α phosphorylation,phospho-elF2α [7],prevented dephosphorylation
same,m6A on RNA,m6A on RNA; [9],increased
Nc1ncnc2c1nnn2[C@@H]1O[C@H](CO)[C@@H](O)[C@H]1O [8-azaadenosine],survival of treated cancer cells co-cultured with immune cells,[2],sensitive to anti-tumor immunity
same,doxorubicin chemosurvival with co-treatment,MCF7 cells,reduced doxorubicin survival
Cn1c(=O)n(-c2ccc(C(C)(C)C#N)cc2)c2c3cc(-c4cnc5ccccc5c4)ccc3ncc21 [BEZ 235],METTL3 level,METTL3 [1]; [8],Increase
same,elF2α phosphorylation,phospho-elF2α [7],elF2α phosphorylation
CC(C)(C)Cn1c(N)nc2ccc(-c3[nH]c(C(C)(C)C)nc3-c3ccc(F)cc3)nc21 [LY2228820],METTL3 level in doxorubicin treated cells co-treated with agent,METTL3 [1]; Western blot,reduces METTL3 increase
